Laboratory results as given in patent US8772313B2, “Benzenesulfonyl or sulfonamide compounds suitable for treating disorders that respond to the modulation of the serotonin 5-HT6 receptor” (Abbott Laboratories, priority 2010, dated 2014).
Counter-ions that a name gives are not always drawn.

Legend:
h-5-HT6 receptor = target: T1, h-5-HT6 receptor (Homo sapiens, UniProt P50406); experiment: 5-HT6 receptor binding assay (displacement of [3H]-LSD); details: membranes of HEK293 cells expressing h-5-HT6 receptor, 1 nM [3H]-LSD
T1 construct: expressed in transfected cells
Protocol: Displacement of radioligands binding to the following cloned human receptors
Cells from stable clonal cell lines expressing the corresponding receptor (5-HT6, α1-adrenergic, dopamine D2 or histamine H1 receptors) were washed with PBS (w/o Ca^++, Mg^++) and harvested in PBS with 0.02% EDTA. The cells were collected by centrifugation at 500 g for 10 min. at 4° C., washed with PBS and centrifuged (500 g, 10 min. 4° C.). The pellets were stored at −80° C. until use. For membrane preparation, the thawed cell pellet was resuspended in ice-cold sucrose buffer (0.25 M sucrose, 10 mM Hepes (pH 7.4), 1 mM Phenylmethylsulfonyl fluoride (PMSF) in DMSO, 5 μg/ml Pepstatin-A, 3 mM EDTA, 0.025% Bacitracin) and homogenized with a Branson Sonifier W-250 (Settings: Timer 4; Output Control 3; Duty Cycle constant; 2 to 3 cycles). Cell disruption was checked with the aid of a microscope. Remaining unbroken cells were pelleted at 1.000 g for 10 min. at 4° C. The sucrose buffer supernatant was then centrifuged at 60.000 g for 1 h at 4° C. (Beckman Ultrazentrifuge XL 80). The pellet was resuspended in 30 ml ice-cold Tris buffer (20 mM TRIS (pH 7.4), 5 μg/ml Pepstatin A, 0.1 mM PMSF, 3 mM EDTA) by pipetting through a 10 ml serological pipet and centrifuged for 1 h at 4° C. at 60.000 g. A final resuspension was performed in a small volume of ice-cold Tris buffer (see above) by pressing through a serological pipet followed by ultrasonic treatment with a Branson Sonifier W-250 (Settings: Timer 1; Output Control 3; Duty Cycle constant; 1 cycle). Protein concentration was determined (BCA-Kit; Pierce) and aliquots stored at −80° C. or in liquid nitrogen for long-term storage.
All receptor binding experiments were carried out in the corresponding assay buffer in a total volume of 200 μl in the presence of various concentrations of test compound (10^−5 M to 10^−9 M, tenfold serial dilution, duplicate determinations). The assays were terminated by filtration on polyethylenimine (PEI 0.1% or 0.3%) presoaked Packard Unifilter Plates (GF/C or GF/B) with a Tomtec MachIII U 96 well-plate harvester. After the plates had been dried for 2 h at 55° C. in a drying chamber scintillation cocktail (BetaPlate Scint; PerkinElmer) was added. Radioactivity was measured in a Microbeta Trilux two hours after the addition of the scintillation mixture. Data derived from liquid scintillation counting were analysed by iterative non-linear regression analysis with the use of the Statistical Analysis System (SAS): a program similar to “LIGAND” as described by Munson and Rodbard (Analytical Biochemistry 107, 220-239 (1980).
HEK293 cells stably expressing the h-5-HT6 receptor (NCBI Reference Sequence XM 001435) were cultured in RPMI1640 medium supplemented with 25 mM HEPES, 10% fetal calf serum and 1-2 mM glutamine. The membrane preparation was performed as described in section 1. […] Non-specific binding was defined with 1 μM methiothepin. The binding reaction was carried out for 3.5 h at room temperature. During the incubation, the plates were shaken on a plate shaker at 100 rpm and terminated by filtration on Packard Unifilter GF/C (0.1% PEI) plates, followed by 2 wash cycles with ice-cold 50 mM Tris-HCl, 5 mM CaCl2.
Data derived from liquid scintillation counting were analyzed by iterative non-linear regression analysis with the use of the Statistical Analysis System (SAS): a program similar to “LIGAND” as described by Munson and Rodbard (Anal. Biochem. 1980, 107, 220-239). Fitting was performed according to formulae described by Feldman (Anal. Biochem. 1972, 48, 317-338). IC50, nH and Ki values were expressed as geometrical mean.

dopamine D2 receptor = target: T2, dopamine D2 receptor (Homo sapiens, UniProt P14416); experiment: Dopamine D2 receptor binding assay (displacement of [125I]-iodospiperone); details: saturation binding experiments, HEK293 D2 membranes; read-out: KD of radioligand
T2 construct: expressed in transfected cells
Protocol: The pellets were stored at −80° C. until use. […] (Beckman Ultrazentrifuge XL 80).
Non-specific binding was defined with 1 μM haloperidol.

T1 sequence (P50406 whole entry): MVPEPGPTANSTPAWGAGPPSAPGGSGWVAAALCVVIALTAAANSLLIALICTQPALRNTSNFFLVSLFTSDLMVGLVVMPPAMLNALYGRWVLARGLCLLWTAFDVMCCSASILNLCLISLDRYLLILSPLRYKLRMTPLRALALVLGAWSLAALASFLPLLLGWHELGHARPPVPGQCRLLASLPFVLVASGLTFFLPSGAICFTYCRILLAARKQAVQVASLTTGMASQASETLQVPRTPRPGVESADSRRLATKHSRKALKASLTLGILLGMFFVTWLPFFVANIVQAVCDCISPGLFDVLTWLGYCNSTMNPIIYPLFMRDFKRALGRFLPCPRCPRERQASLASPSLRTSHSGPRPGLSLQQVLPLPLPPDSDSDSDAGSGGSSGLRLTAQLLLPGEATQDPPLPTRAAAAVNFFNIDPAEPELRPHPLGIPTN
T2 sequence (P14416 whole entry): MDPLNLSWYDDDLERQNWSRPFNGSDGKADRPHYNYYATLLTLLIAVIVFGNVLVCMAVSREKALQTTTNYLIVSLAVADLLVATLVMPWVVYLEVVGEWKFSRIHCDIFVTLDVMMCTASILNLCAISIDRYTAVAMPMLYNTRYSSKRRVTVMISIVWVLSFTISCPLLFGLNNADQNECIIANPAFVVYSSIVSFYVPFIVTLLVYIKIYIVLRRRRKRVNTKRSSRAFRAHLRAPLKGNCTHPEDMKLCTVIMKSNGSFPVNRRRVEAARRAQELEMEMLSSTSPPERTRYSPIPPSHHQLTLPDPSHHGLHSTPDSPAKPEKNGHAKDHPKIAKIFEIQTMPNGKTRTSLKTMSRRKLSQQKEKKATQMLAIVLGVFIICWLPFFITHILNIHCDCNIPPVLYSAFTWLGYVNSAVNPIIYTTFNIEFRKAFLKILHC

Ki (h-5-HT6 receptor) [nM] | Kd (dopamine D2 receptor) [nM] | Molecule
< 20 | – | COc1ccc(S(=O)(=O)Nc2ccc(C)cc2OC(F)F)cc1C1CCNCC1 [Example 5, N-(2-Difluoromethoxy-4-methyl-phenyl)-4-methoxy-3-piperidin-4-yl-benzenesulfonamide hydrochloride]
< 10 | – | COc1ccc(S(=O)(=O)Nc2cc(C)ccc2OC(F)F)cc1C1CCNCC1 [Example 4, N-(2-Difluoromethoxy-5-methyl-phenyl)-4-methoxy-3-piperidin-4-yl-benzenesulfonamide hydrochloride]
< 100 | – | COCc1ccccc1NS(=O)(=O)c1ccc(OC)c(C2CCNCC2)c1 [Example 6, 4-Methoxy-N-(2-methoxymethyl-phenyl)-3-piperidin-4-yl-benzenesulfonamide hydrochloride]
< 10 | – | COc1ccc(S(=O)(=O)Nc2cc(C)ccc2OC(F)F)cc1C1CCN(C)CC1 [Example 7, N-(2-Difluoromethoxy-5-methyl-phenyl)-4-methoxy-3-(1-methyl-piperidin-4-yl)-benzenesulfonamide hydrochloride]
– | 0.22 | iodospiperone [[^125I]-iodospiperone]
< 10 | – | COc1ccc(S(=O)(=O)Nc2cc(C)ccc2OC(F)F)cc1C1CCNC1 (centres unmarked) [Example 1, N-(2-Difluoromethoxy-5-methyl-phenyl)-4-methoxy-3-pyrrolidin-3-yl-benzenesulfonamide hydrochloride]
< 20 | – | COCc1ccccc1NS(=O)(=O)c1ccc(OC)c(C2CCNC2)c1 (centres unmarked) [Example 3, 4-Methoxy-N-(2-methoxymethyl-phenyl)-3-pyrrolidin-3-yl-benzenesulfonamide hydrochloride]
< 10 | – | COc1ccc(S(=O)(=O)Nc2cc(C)ccc2OC(F)F)cc1C1CCN(C)C1 (centres unmarked) [Example 2, N-(2-Difluoromethoxy-5-methyl-phenyl)-4-methoxy-3-(1-methyl-pyrrolidin-3-yl)-benzenesulfonamide hydrochloride]
